Converted amounts (≈) assume the structure as drawn.

In experiment [1] the test system is dacA gene transcription in WT bacteria. The experiment is described as follows: RT-qPCR of dacA transcription upon vancomycin treatment, WT bacteria. The format is cell-based, Listeria monocytogenes. As to the method: Overnight cultures were adjusted to 0.03 O.D.600 in 20 ml fresh BHI broth, supplemented when indicated with 0.25 mM IPTG, 0.08 μg ml^−1 penicillin G, 1 μg ml^−1 vancomycin or 3 μg ml^−1 c-di-AMP. For bacterial RNA extraction, bacteria were grown at 37° C. to O.D.600 0.4, then supplemented with 3 μg ml^−1 lincomycin, 50 μM rhodamine 6 G (R6G), […]; or centrifuged and resuspended in minimal media pH 5 (lactic acid), minimal media with 10 mM H2O2, or defined minimal media pH 5 with 10 mM H2O2 for 30 mM For microscopy bacteria were grown similarly and supplemented with 1 μg ml^−1 vancomycin for 2 h. Growth curves in the presence of drugs were performed in a Synergy HT BIOTEK® plate reader at 37° C. with continuous shaking following O.D.600 every 15 min for 24 h. Of note, bacterial growth in the plate reader is different than in flasks in respect to the O.D. levels that are measured. In each experiment, growth conditions are indicated.
RNA was purified from bacteria in mid-log growth in BHI or from infected cells using standard phenol-chloroform extraction methods. RNA from intracellularly grown bacteria was amplified using MESSAGEAMP™ II (AMBION™) bacterial RNA amplification kit according to the manufacturer's instructions. RNA of infected macrophages was extracted using TRIZOL® reagent according to standard protocols. […]
Background: In qPCR the cycle at which signal appears reflects the starting amount.

In experiment [2] the test system is WT bacteria. As to the kind of experiment: TEM sections, cell wall thickness under vancomycin treatment, WT bacteria. The experiment is classed as cell-based, Listeria monocytogenes. Conditions: vancomycin 1 μg ml^−1 for 2 h. The method, then:
(§1) Overnight cultures were adjusted to 0.03 O.D.600 in 20 ml fresh BHI broth, supplemented when indicated with 0.25 mM IPTG, 0.08 μg ml^−1 penicillin G, 1 μg ml^−1 vancomycin or 3 μg ml^−1 c-di-AMP. For bacterial RNA extraction, bacteria were grown at 37° C. to O.D.600 0.4, then supplemented with 3 μg ml^−1 lincomycin, 50 μM rhodamine 6 G (R6G), 1 μg ml^−1 vancomycin, 0.08 μg ml^−1 penicillin G for 2 h; or centrifuged and resuspended in minimal media pH 5 (lactic acid), minimal media with 10 mM H2O2, or defined minimal media pH 5 with 10 mM H2O2 for 30 mM For microscopy bacteria were grown similarly and supplemented with 1 μg ml^−1 vancomycin for 2 h. Growth curves in the presence of drugs were performed in a Synergy HT BIOTEK® plate reader at 37° C. with continuous shaking following O.D.600 every 15 min for 24 h. Of note, bacterial growth in the plate reader is different than in flasks in respect to the O.D. levels that are measured. In each experiment, growth conditions are indicated.
Bacteria were grown as described above with and without vancomycin treatment. For negative staining, PBS washed bacteria were adsorbed on formvar/carbon coated grids and stained with 2% aqueous uranyl acetate. For TEM sections, a bacterial pellet from 20 ml of culture was fixed in 2.5% glutaraldehyde in PBS at 4° C. for 20 h, washed three times with PBS and post-fixed in 1% OsO4 in PBS at 4° C. for 2 h. […]

For experiment [3], the system named is WT bacteria. The experiment is described as follows: Minimal inhibitory concentration for WT bacteria. The format is cell-based. Conditions: Listeria monocytogenes. As to the method: as §1
The next experiment relates to ΔmdrMTAC. As to the kind of experiment: Minimal inhibitory concentration for ΔmdrMTAC. The format is cell-based. The conditions noted are these: Listeria monocytogenes, read-out: minimal inhibitory concentration.
The test system of a further experiment is ΔmdrMTAC mutant. As to the kind of experiment: Growth curves in BHI with added cyclic dinucleotide, ΔmdrMTAC mutant. Conditions: for effect on growth in the absence of vancomycin stress: BHI, dinucleotide 3 μg ml^−1; for effect on growth in the presence of vancomycin: vancomycin 1 μg ml^−1, dinucleotide 3 μg ml^−1. The experiment is classed as cell-based, Listeria monocytogenes. The method, then:
as §1

For another experiment, the system named is WT L. monocytogenes. As to the kind of experiment: Growth curves in BHI with added cyclic dinucleotide, WT bacteria. The experiment is classed as cell-based, Listeria monocytogenes. Conditions: for effect on growth in the absence of vancomycin stress: BHI, dinucleotide 3 μg ml^−1; for effect on growth in the presence of vancomycin: vancomycin 1 μg ml^−1, dinucleotide 3 μg ml^−1. As to the method:
as §1

Consider `CN[C@H](CC(C)C)C(=O)N[C@H]1C(=O)N[C@@H](CC(N)=O)C(=O)N[C@H]2C(=O)N[C@H]3C(=O)N[C@H](C(=O)N[C@H](C(=O)O)c4cc(O)cc(O)c4-c4cc3ccc4O)[C@H](O)c3ccc(c(Cl)c3)Oc3cc2cc(c3O[C@@H]2O[C@H](CO)[C@@H](O)[C@H](O)[C@H]2O[C@H]2C[C@](C)(N)[C@H](O)[C@H](C)O2)Oc2ccc(cc2Cl)[C@H]1O` [vancomycin], for which the “dacA transcription level in comparison to non-treated bacteria” value was found to be 1.5 fold in experiment [1] (sub-lethal vancomycin 1 μg ml^−1) and 4.5 fold in experiment [1] (vancomycin 20 μg ml^−1 for 10 minutes). In the experiment with WT bacteria [2], the “cell wall thickness, average” value was 35 nm. For the same compound, the MIC in the experiment with WT bacteria [3] was determined as 2 µg/mL; in the experiment with ΔmdrMTAC, 1.5 µg/mL (≈ 1.04 µM).
`Nc1ncnc2c1ncn2[C@@H]1O[C@@H]2COP(=O)(O)O[C@H]3[C@@H](O)[C@H](n4cnc5c(N)ncnc54)O[C@@H]3COP(=O)(O)O[C@H]2[C@H]1O` [c-di-AMP, cyclic-di-adenosine monophosphate]: in the experiment on ΔmdrMTAC mutant, the “effect on growth in the absence of vancomycin stress” value (“effect on growth in the absence” below) was “no effect” and the “effect on growth in the presence of vancomycin” value (shortened to “effect on growth in the presence”) is reported as “shorter lag phase”. In addition, in the experiment with WT L. monocytogenes, the “effect on growth in the absence” value is recorded as “no effect” and the “effect on growth in the presence” value is “shorter lag phase”.
With `Nc1nc2c(ncn2[C@@H]2O[C@@H]3COP(=O)(O)O[C@H]4[C@@H](O)[C@H](n5cnc6c(=O)[nH]c(N)nc65)O[C@@H]4COP(=O)(O)O[C@H]3[C@H]2O)c(=O)[nH]1` [c-di-GMP], in the experiment with ΔmdrMTAC mutant, the “effect on growth in the absence” value is given as “no effect” and the “effect on growth in the presence” value is listed as “no effect”. In the experiment on WT L. monocytogenes, the “effect on growth in the absence” value is reported as “no effect” and the “effect on growth in the presence” value is “no effect”.
For `CC1(C)S[C@@H]2[C@H](NC(=O)Cc3ccccc3)C(=O)N2[C@H]1C(=O)O` [penicillin, penicillin G], the MIC in the experiment with WT bacteria [3] stood at 0.15 µg/mL; in the experiment with ΔmdrMTAC it was 0.08 µg/mL (≈ 0.239 µM).

The record behind these values is patent US9976149B2, “Modified listeria bacteria and uses thereof” (priority 2014, dated 2018).
